pIC50: −log10 of the molar value. Converted amounts (≈) assume the structure as drawn. The source made the active and inactive calls. The calls are words filed in the database; no cut-off is given here.
Legend:
Peritoneal macrophage [1] = assay: Cytotoxicity against Swiss Webster mouse peritoneal macrophages at 100 uM after 72 hrs by resazurin reduction assay; assay type: cell-based
P2X purinoceptor 7 [2] = target: T1, P2X purinoceptor 7 (Mus musculus, UniProt Q9Z1M0); assay: (§1) Antagonist activity at P2X7R in Swiss Webster mouse peritoneal macrophages assessed as inhibition of ATP-induced propidium iodide uptake preincubated for 10 mins followed by ATP induction measured after 25 mins by fluorescence assay
T1 sequence (Q9Z1M0 whole entry): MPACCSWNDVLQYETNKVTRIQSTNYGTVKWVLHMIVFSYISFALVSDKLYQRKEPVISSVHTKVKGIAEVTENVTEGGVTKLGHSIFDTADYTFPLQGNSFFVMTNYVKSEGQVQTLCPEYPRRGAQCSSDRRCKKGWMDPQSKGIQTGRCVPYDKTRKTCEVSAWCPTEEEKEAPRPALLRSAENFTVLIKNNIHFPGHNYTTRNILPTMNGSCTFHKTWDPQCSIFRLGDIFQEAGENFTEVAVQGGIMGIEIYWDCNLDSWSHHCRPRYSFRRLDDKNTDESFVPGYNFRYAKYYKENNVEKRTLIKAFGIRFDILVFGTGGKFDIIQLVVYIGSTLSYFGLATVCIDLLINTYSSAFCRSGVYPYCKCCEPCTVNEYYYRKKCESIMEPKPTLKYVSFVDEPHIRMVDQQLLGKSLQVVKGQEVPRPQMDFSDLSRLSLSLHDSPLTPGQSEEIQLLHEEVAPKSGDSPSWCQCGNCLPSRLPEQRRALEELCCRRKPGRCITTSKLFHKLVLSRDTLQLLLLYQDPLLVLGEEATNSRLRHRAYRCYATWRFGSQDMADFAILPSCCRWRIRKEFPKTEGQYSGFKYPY

[3] = Cytotoxicity against Swiss Webster mouse peritoneal macrophages by LDH release assay; assay type: cell-based, Peritoneal macrophage
P2X7R = assay: Selectivity index, ratio of CC50 for Swiss Webster mouse peritoneal macrophages to IC50 for antagonist activity at P2X7R in Swiss Webster mouse peritoneal macrophages; assay type: toxicity; conditions: read-out: Ratio CC50/IC50
THP-1 = assay: Antiinflammatory activity in LPS/IFNgamma-differentiated human THP1 cells assessed as inhibition of ATP-induced IL-1beta release after 30 mins by ELISA; assay type: functional, cell-based; conditions: THP-1, 0.5 h
Peritoneal macrophage [4] = assay: Antiinflammatory activity in LPS/IFNgamma-differentiated Swiss Webster mouse peritoneal macrophages assessed as inhibition of ATP-induced IL-1beta release preincubated for 15 mins followed by ATP/LPS challenge measured after 30 mins by sandwich ELISA; assay type: functional, cell-based
P2X purinoceptor 7 [5] = target: T2, P2X purinoceptor 7 (Homo sapiens, UniProt Q99572); assay: Antagonist activity at human P2X7R expressed in HEK293 cells assessed as inhibition of ATP-induced […] uptake preincubated for 10 mins followed by ATP induction measured after 25 mins by fluorescence assay; assay type: cell-based
T2 sequence (Q99572 whole entry): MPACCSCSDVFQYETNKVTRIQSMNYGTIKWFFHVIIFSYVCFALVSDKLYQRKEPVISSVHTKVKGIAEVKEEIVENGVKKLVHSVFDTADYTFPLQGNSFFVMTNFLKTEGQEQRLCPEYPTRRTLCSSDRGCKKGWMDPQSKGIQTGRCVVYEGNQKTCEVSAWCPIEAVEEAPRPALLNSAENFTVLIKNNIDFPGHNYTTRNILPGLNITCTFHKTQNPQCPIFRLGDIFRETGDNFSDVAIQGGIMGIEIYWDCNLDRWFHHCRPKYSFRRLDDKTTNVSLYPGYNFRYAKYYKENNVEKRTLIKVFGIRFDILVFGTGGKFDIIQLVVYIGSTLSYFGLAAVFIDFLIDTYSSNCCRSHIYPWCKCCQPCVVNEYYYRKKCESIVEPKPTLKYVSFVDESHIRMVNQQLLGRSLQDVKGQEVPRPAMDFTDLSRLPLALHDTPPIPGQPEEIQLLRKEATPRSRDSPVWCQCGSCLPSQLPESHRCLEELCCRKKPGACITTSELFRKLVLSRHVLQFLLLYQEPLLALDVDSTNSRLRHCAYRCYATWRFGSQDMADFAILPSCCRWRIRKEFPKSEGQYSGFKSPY

[6] = target: T3, P2X purinoceptor 7 (Mus musculus) (UniProt Q9Z1M0); assay: as §1
T3 sequence (whole entry): T1 sequence (Q9Z1M0 whole entry)

[7] = Safety index, ratio of test compound CC50 to BGG CC50 for Swiss Webster mouse peritoneal macrophages by LDH release assay; assay type: ADME, cell-based, Peritoneal macrophage
[8] = Safety index, ratio of test compound CC50 to A740003 CC50 for Swiss Webster mouse peritoneal macrophages by LDH release assay; assay type: ADME, cell-based, Peritoneal macrophage
[9] = Intrinsic clearance in mouse liver microsomes assessed per mg of protein at 1 uM preincubated for 45 mins followed by NADPH addition; assay type: ADME, microsome; conditions: read-out: CLH
[10] = Intrinsic clearance in human liver microsomes assessed per mg of protein at 1 uM preincubated for 45 mins followed by NADPH addition; assay type: ADME, microsome; conditions: read-out: CLH
[11] = Apparent permeability across apical to basolateral side in human Caco2 cells at 100 uM after 60 mins by lucifer yellow fluorescence-based assay; assay type: ADME, cell-based; conditions: Caco-2
[12] = Kinetic solubility in pH 2 hydrochloride buffer; assay type: physicochemical; conditions: read-out: Kinetic_solubility
[13] = Kinetic solubility in pH 4 citrate buffer; assay type: physicochemical; conditions: read-out: Kinetic_solubility
[14] = Kinetic solubility in pH 7.4 phosphate buffer; assay type: physicochemical; conditions: read-out: Kinetic_solubility
[15] = Kinetic solubility in pH 10 sodium hydroxide buffer; assay type: physicochemical; conditions: read-out: Kinetic_solubility
[16] = Octanol-PBS distribution co-efficient, log D of the compound at 25 mM at pH 7.4 after 2 hrs by shake flask method; assay type: physicochemical
[17] = target: T3, P2X purinoceptor 7 (Mus musculus); assay: Antagonist activity at P2X7R in Swiss Webster mouse peritoneal macrophages assessed as inhibition of ionic current amplitude at 500 nM incubated for 300 secs in presence of ATP by patch clamp method
[18] = Apparent permeability across apical to basolateral side in human Caco2 cells at 100 uM after 60 mins by lucifer yellow fluorescence-based assay relative to propranolol; assay type: ADME, cell-based; conditions: caco-2, 1 h
Mus musculus [19] = assay: Antiinflammatory activity in ip dosed Swiss Webster mouse assessed as inhibition of carrageenan-induced paw edema preincubated for 30 mins followed by carrageenan challenge measured after 60 mins by plethysmometer; assay type: functional, organism-based
Peritoneal macrophage [20] = assay: Antiinflammatory activity in IFNgamma-differentiated Swiss Webster mouse peritoneal macrophages assessed as inhibition of LPS-induced IL-1beta release at 500 nM preincubated for 15 mins followed by LPS challenge measured after 30 mins by sandwich ELISA; assay type: functional, cell-based
Mus musculus [21] = assay: Antiinflammatory activity in Swiss Webster mouse assessed as inhibition of carrageenan-induced paw edema at 10 mg/kg, ip preincubated for 30 mins followed by carrageenan challenge measured after 60 mins by plethysmometer; assay type: functional, organism-based

Row | pIC50 (P2X purinoceptor 7 [2]) | pIC50 (THP-1) | pIC50 (Peritoneal macrophage [4]) | pIC50 (P2X purinoceptor 7 [5]) | Compound | Activity (Peritoneal macrophage [1]) | CC50 [3] [µM] | selectivity ratio (P2X7R) | further results
1 | 5.50 | – | – | – | COc1cccc(C2=C(O)C(=O)c3ccccc3C2=O)c1 | Non-Toxic | – | – | –
2 | 4.09 | – | – | – | Cc1ccc(C2=C(O)C(=O)c3ccccc3C2=O)cc1 | Non-Toxic | – | – | –
3 | 4.10 | – | – | – | COc1ccc(C2=C(O)C(=O)c3ccccc3C2=O)cc1 | Non-Toxic | – | – | –
4 | 4.48 | – | – | – | O=C1C(O)=C(c2cccc(F)c2)C(=O)c2ccccc21 | Non-Toxic | – | – | –
5 | 4.34 | – | – | – | N#Cc1ccc(C2=C(O)C(=O)c3ccccc3C2=O)cc1 | Non-Toxic | – | – | –
6 | 7.64 | 8.01 | 7.95 | 7.65 | O=C1C(O)=C(c2ccccc2)C(=O)c2ccccc21 | Non-Toxic | 1990 | 86400 | inhibition [6]: Dose-dependent effect; selectivity ratio [7]: 10 to 20; selectivity ratio [8]: 3 to 6; microsomal CLint at 1 µM [9]: 27.7 µL/min/mg; microsomal CLint at 1 µM [10]: 36.8 µL/min/mg; Papp A→B at 1 h, 100 µM [11]: 61.1 ×10⁻⁶ cm/s; solubility kinetic [12]: < 500 µM; solubility kinetic [13]: < 500 µM; solubility kinetic [14]: < 500 µM; solubility kinetic [15]: < 500 µM; logD at 2 h, 25000 µM [16]: -0.39; inhibition [17]: Active; Papp [18]: 60%; inhibition (Mus musculus [19]): Dose-dependent effect; inhibition (Peritoneal macrophage [20]): inactive

More lines, now with the values behind:

Row | Compound | pIC50 (P2X purinoceptor 7 [2]) | pIC50 (THP-1) | pIC50 (Peritoneal macrophage [4]) | pIC50 (P2X purinoceptor 7 [5]) | Activity (Peritoneal macrophage [1]) | CC50 [3] [µM] | selectivity ratio (P2X7R) | further results
7 | CCOc1ccc(Nc2ccc(/C(=C3C=C/C(=[N+](/CC)Cc4cccc(S(=O)(=O)[O-])c4)C=C/3C)c3ccc(N(CC)Cc4cccc(S(=O)(=O)O)c4)cc3C)cc2)cc1 [BRILLIANT BLUE G] | 4.82 | 4.72 | 4.70 | 6.27 | – | 87.3 | 5.73 | –
8 | O=C1C(O)=C(I)C(=O)c2ccccc21 | 7.32 | 7.40 | 7.31 | 7.15 | Non-Toxic | 2020 | 50600 | inhibition [6]: Dose-dependent effect; selectivity ratio [7]: 10 to 20; selectivity ratio [8]: 3 to 6; microsomal CLint at 1 µM [9]: 24.6 µL/min/mg; microsomal CLint at 1 µM [10]: 31.1 µL/min/mg; Papp A→B at 1 h, 100 µM [11]: 54.2 ×10⁻⁶ cm/s; solubility kinetic [12]: 300 µM (≈ 90 µg/mL); solubility kinetic [13]: 300 µM (≈ 90 µg/mL); solubility kinetic [14]: < 300 µM; solubility kinetic [15]: 300 µM (≈ 90 µg/mL); logD at 2 h, 25000 µM [16]: -0.11; inhibition [17]: Active; Papp [18]: <= 50%; inhibition (Mus musculus [19]): Dose-dependent effect; inhibition (Peritoneal macrophage [20]): inactive
9 | COc1ccc(CC(=O)NC(N/C(=N/C#N)Nc2cccc3ncccc23)C(C)(C)C)cc1OC (stereo unspecified) | 6.05 | 6.16 | 6.14 | 6.96 | – | 325 | 362 | inhibition [17]: Active
10 | O=C1C(O)=C(Br)C(=O)c2ccccc21 | 6.15 | 6.20 | 6.17 | 6.38 | Non-Toxic | 844 | 1180 | inhibition [6]: Dose-dependent effect; selectivity ratio [7]: 10 to 20; selectivity ratio [8]: 3 to 6; inhibition (Peritoneal macrophage [20]): inactive
11 | O=C1C=C(O)C(=O)c2ccccc21 [LAWSONE] | 4.12 | – | – | – | Toxic | – | – | –
12 | O=C(O)Cc1ccccc1Nc1c(Cl)cccc1Cl | – | – | – | – | – | – | – | inhibition (Mus musculus [21]): Active
